Source: patent US11065257B2, “Substituted pyrazoloazepin-4-ones and their use as phosphodiesterase inhibitors” (LEO Pharma A/S, priority 2016, dated 2021)

These compounds were tested against T1, human PDE4D catalytic domain (Homo sapiens, UniProt Q08499) (assay: PDE4 Assay). Details: human PDE4D catalytic domain (S380-L740), TR-FRET with FAM-cAMP; expressed as a range of IC50; read-out: PDE4 Potency Range.
T1 construct: UniProt no; Q08499 [S380-L740]
T1 sequence (Q08499 380-740): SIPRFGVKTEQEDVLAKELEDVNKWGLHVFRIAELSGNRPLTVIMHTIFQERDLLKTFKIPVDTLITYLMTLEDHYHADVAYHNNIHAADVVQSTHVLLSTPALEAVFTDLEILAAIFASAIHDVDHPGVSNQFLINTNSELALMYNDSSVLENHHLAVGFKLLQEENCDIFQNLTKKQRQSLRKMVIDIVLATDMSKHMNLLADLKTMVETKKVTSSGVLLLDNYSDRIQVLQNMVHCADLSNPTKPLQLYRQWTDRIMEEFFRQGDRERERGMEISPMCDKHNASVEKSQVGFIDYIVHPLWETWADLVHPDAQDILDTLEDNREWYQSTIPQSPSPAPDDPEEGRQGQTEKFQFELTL
Assay type: biochemical
Description: The human PDE4D catalytic domain (UniProt no. Q08499 [S380-L740]) was incubated with a mixture of non-labelled cAMP (cyclic adenosine monophosphate) and fluorescein amidite (FAM) conjugated cAMP and titrated test or reference compound. Following brief incubation the enzymatic reaction was stopped by addition of binding buffer containing nanoparticles with immobilized trivalent metal ions capable of binding 1) AMP phospho groups and 2) terbium (Tb) donor fluorophores. Subsequent excitation of the Tb donor triggers time-resolved FRET to adjacent FAM acceptor molecules resulting in light emission. In the presence of a PDE4 inhibitor, AMP generation was reduced resulting in a lower fluorescence signal. The cAMP phosphodiester is not bound by the detection system.
The results were calculated as the molar concentrations resulting in 50% inhibition of the substrate cleavage compared to controls samples, and are expressed as a range of IC50 (nM).
In the case of `CCc1nn(CCCOC(=O)c2scnc2C)c2c1C(=O)NCC1(CCOCC1)C2` [Example 81, 3-(3-ethyl-4-oxo-spiro[6,8-dihydro-5H-pyrazolo[4,3-c]azepine-7,4′-tetrahydropyran]-1-yl)propyl 4-methylthiazole-5-carboxylate], the IC50 is reported as 100 to 500 nM. For `CCc1nn(CCCOC(=O)c2ncsc2C)c2c1C(=O)NCC1(CCOCC1)C2` [Example 80, 3-(3-ethyl-4-oxo-spiro[6,8-dihydro-5H-pyrazolo[4,3-c]azepine-7,4′-tetrahydropyran]-1-yl)propyl 5-methylthiazole-4-carboxylate], the IC50 was 100 to 500 nM. `CCc1nn(CCCOC(=O)c2cnc(C)nc2)c2c1C(=O)NCC1(CCOCC1)C2` [Example 70, 3-(3-ethyl-4-oxo-spiro[6,8-dihydro-5H-pyrazolo[4,3-c]azepine-7,4′-tetrahydropyran]-1-yl)propyl 2-methylpyrimidine-5-carboxylate] gave an IC50 of 100 to 500 nM. `CCc1nn(CCCOC(=O)c2ccon2)c2c1C(=O)NCC1(CCOCC1)C2` [Example 21, 3-(3-ethyl-4-oxo-spiro[6,8-dihydro-5H-pyrazolo[4,3-c]azepine-7,4′-tetrahydropyran]-1-yl)propyl isoxazole-3-carboxylate] gave an IC50 of over 500 nM. In the case of `CCc1nn(C[C@@H](C)COC(=O)C2CCOC2)c2c1C(=O)NCC1(CCOCC1)C2` (stereo partly drawn) [Example 108, [(2R)-3-(3-ethyl-4-oxo-spiro[6,8-dihydro-5H-pyrazolo[4,3-c]azepine-7,4′-tetrahydropyran]-1-yl)-2-methyl-propyl] tetrahydrofuran-3-carboxylate], the IC50 is reported as under 100 nM. `CCc1nn(CCCOC(=O)C2CCCOC2)c2c1C(=O)NCC1(CCOCC1)C2` (stereo not shown) [Example 58, 3-(3-ethyl-4-oxo-spiro[6,8-dihydro-5H-pyrazolo[4,3-c]azepine-7,4′-tetrahydropyran]-1-yl)propyl tetrahydropyran-3-carboxylate] showed an IC50 of over 500 nM. In the case of `CCc1nn(CCOC(=O)c2nc(C)cs2)c2c1C(=O)NCC1(CCOCC1)C2` [Example 14, 2-(3-ethyl-4-oxo-spiro[6,8-dihydro-5H-pyrazolo[4,3-c]azepine-7,4′-tetrahydropyran]-1-yl)ethyl 4-methylthiazole-2-carboxylate], the IC50 is reported as 100 to 500 nM. With `CCc1nn(CCCOC(=O)c2cnsc2C)c2c1C(=O)NCC1(CCOCC1)C2` [Example 79, 3-(3-ethyl-4-oxo-spiro[6,8-dihydro-5H-pyrazolo[4,3-c]azepine-7,4′-tetrahydropyran]-1-yl)propyl 5-methylisothiazole-4-carboxylate] the IC50 was 100 to 500 nM. Work on `CCc1nn(CCOC(=O)Cc2cc(C)no2)c2c1C(=O)NCC1(CCOCC1)C2` [Example 12, 2-(3-ethyl-4-oxo-spiro[6,8-dihydro-5H-pyrazolo[4,3-c]azepine-7,4′-tetrahydropyran]-1-yl)ethyl 2-(3-methylisoxazol-5-yl)acetate] yielded an IC50 of over 500 nM. With `CCc1nn(CCCOC(=O)c2c(C)nn(C)c2C)c2c1C(=O)NCC1(CCOCC1)C2` [Example 91, 3-(3-ethyl-4-oxo-spiro[6,8-dihydro-5H-pyrazolo[4,3-c]azepine-7,4′-tetrahydropyran]-1-yl)propyl 1,3,5-trimethylpyrazole-4-carboxylate] the IC50 was 100 to 500 nM. Compound `CCc1nn(CCCOC(=O)c2cc(C)nn2CC)c2c1C(=O)NCC1(CCOCC1)C2` [Example 90, 3-(3-ethyl-4-oxo-spiro[6,8-dihydro-5H-pyrazolo[4,3-c]azepine-7,4′-tetrahydropyran]-1-yl)propyl 2-ethyl-5-methyl-pyrazole-3-carboxylate] has an IC50 of 100 to 500 nM. In the case of `CCc1nn(CCCOC(=O)c2cc(C)nn2C)c2c1C(=O)NCC1(CCOCC1)C2` [Example 71, 3-(3-ethyl-4-oxo-spiro[6,8-dihydro-5H-pyrazolo[4,3-c]azepine-7,4′-tetrahydropyran]-1-yl)propyl 2,5-dimethylpyrazole-3-carboxylate], the IC50 is reported as 100 to 500 nM. `CCc1nn(CCCOC(=O)c2oncc2C)c2c1C(=O)NCC1(CCOCC1)C2` [Example 42, 3-(3-ethyl-4-oxo-spiro[6,8-dihydro-5H-pyrazolo[4,3-c]azepine-7,4′-tetrahydropyran]-1-yl)propyl 4-methylisoxazole-5-carboxylate] was tested, and the IC50 was 100 to 500 nM.
